From patent US20230143612A1 (Arbutus Biopharma Corporation, priority 2020, published 2023)

Molecular target: PD-L1 His protein / PD-1 Fc protein (Homo sapiens, UniProt Q9NZQ7)
Test: HTRF Assay (PD-1/PD-L1 interaction)
Type: binding
Conditions: PD-L1 His 6 nM, PD-1 Fc 6 nM
Summary of the method: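 Compounds tested from 20 μM down to 0.001 μM (3-fold) against 6 nM PD-L1 His and 6 nM PD-1 Fc, 15 min room temperature incubation. Detection after 1 h at room temperature with Tb cryptate anti-6HIS and XL665 anti-human IgG reagents (mixture at 0.35 nM and 6.7 nM), HTRF signal.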

PD-L1 His protein / PD-1 Fc protein, sequence (Q9NZQ7 19-238 limits assumed): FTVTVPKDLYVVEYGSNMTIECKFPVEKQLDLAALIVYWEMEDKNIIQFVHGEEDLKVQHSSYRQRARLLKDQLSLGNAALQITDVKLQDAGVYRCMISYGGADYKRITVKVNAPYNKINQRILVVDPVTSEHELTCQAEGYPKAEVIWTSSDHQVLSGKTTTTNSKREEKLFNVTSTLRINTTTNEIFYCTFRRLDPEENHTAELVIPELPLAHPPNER

Structure (SMILES): COc1nc(-c2cccc(-c3cccc(-c4cc(OC)c5c(CNC[C@@H]6CCC(=O)N6)cnn5c4)c3Cl)c2Cl)ccc1CNC[C@@H]1CCC(=O)N1 [Example 397]
- IC50: 0.29 µM

Structure (SMILES): COc1nc(-c2cccc(-c3cccc(-c4ccc5c(OC)c(CNC[C@@H]6CCC(=O)N6)cc(Cl)c5n4)c3Cl)c2Cl)cc(F)c1CNC[C@@H]1CCC(=O)N1 [Example 398, (S)-5-((((8-Chloro-2-(2,2′-dichloro-3′-(4-fluoro-6-methoxy-5-(((((S)-5-oxopyrrolidin-2-yl)methyl)amino)methyl)pyridin-2-yl)-[1,1′-biphenyl]-3-yl)-5-methoxyquinolin-6-yl)methyl)amino)methyl)pyrrolidin-2-one]
- IC50: 0.028 µM

Structure (SMILES): CCc1nc2cc(-c3cccc(-c4cccc(-c5ccc(CNC[C@@H]6CCC(=O)N6)c(OC)n5)c4Cl)c3Cl)ccn2c(=O)c1CNC[C@@H]1CCC(=O)N1 [Example 399, 8-(2,2′-Dichloro-3′-(6-methoxy-5-(((((S)-5-oxopyrrolidin-2-yl)methyl)amino)methyl)pyridin-2-yl)-[1,1′-biphenyl]-3-yl)-2-ethyl-3-(((((S)-5-oxopyrrolidin-2-yl)methyl)amino)methyl)-4H-pyrido[1,2-a]pyrimidin-4-one]
- IC50: 0.11 µM

Structure (SMILES): COc1nc(-c2cccc(-c3cccc(-c4cc(F)c5c(c4)CCN(CCNC[C@@H]4CCC(=O)N4)C5=O)c3Cl)c2Cl)ccc1CNC[C@@H]1CCC(=O)N1 [Example 400, 6-(2,2′-Dichloro-3′-(6-methoxy-5-(((((S)-5-oxopyrrolidin-2-yl)methyl)amino)methyl)pyridin-2-yl)-[1,1′-biphenyl]-3-yl)-8-fluoro-2-(2-((((S)-5-oxopyrrolidin-2-yl)methyl)amino)ethyl)-3,4-dihydroisoquinolin-1(2H)-one]
- IC50: 0.55 µM

Structure (SMILES): COc1nc(-c2cccc(-c3cccc(-c4ncc5c(CNC[C@@H]6CCC(=O)N6)cn(C)c5n4)c3Cl)c2Cl)ccc1CNC[C@@H]1CCC(=O)N1 [Example 401, (S)-5-((((2-(2,2′-Dichloro-3′-(6-methoxy-5-(((((S)-5-oxopyrrolidin-2-yl)methyl)amino)methyl)pyridin-2-yl)-[1,1′-biphenyl]-3-yl)-7-methyl-7H-pyrrolo[2,3-d]pyrimidin-5-yl)methyl)amino)methyl)pyrrolidin-2-one]
- IC50: 0.0001 µM

Structure (SMILES): COc1nc(-c2cccc(-c3cccc(-c4cc5c(cn4)c(CNC[C@@H]4CCC(=O)N4)cn5C)c3Cl)c2Cl)ccc1CNC[C@@H]1CCC(=O)N1 [Example 402, (S)-5-((((6-(2,2′-Dichloro-3′-(1-methyl-3-(((((S)-5-oxopyrrolidin-2-yl)methyl)amino)methyl)-1H-pyrrolo[3,2-c]pyridin-6-yl)-[1,1′-biphenyl]-3-yl)-2-methoxypyridin-3-yl)methyl)amino)methyl)pyrrolidin-2-one]
- IC50: 0.05 µM

Structure (SMILES): COc1nc(-c2cccc(-c3cccc(-c4cnc5c(c4)CNCC(=O)N5)c3Cl)c2Cl)ccc1CNC[C@@H]1CCC(=O)N1 [Example 403, (S)-7-(2,2′-Dichloro-3′-(6-methoxy-5-((((5-oxopyrrolidin-2-yl)methyl)amino)methyl)pyridin-2-yl)-[1,1′-biphenyl]-3-yl)-1,3,4,5-tetrahydro-2H-pyrido[2,3-e][1,4]diazepin-2-one]
- IC50: 0.0001 µM

Structure (SMILES): COc1nc(-c2cccc(-c3cccc(-c4ccn5c(=O)c(CNC[C@@H]6CCC(=O)N6)c(C)nc5c4)c3Cl)c2Cl)cc(F)c1CNC[C@@H]1CCC(=O)N1 [Example 404, 8-(2,2′-Dichloro-3′-(4-fluoro-6-methoxy-5-(((((S)-5-oxopyrrolidin-2-yl)methyl)amino)methyl)pyridin-2-yl)-[1,1′-biphenyl]-3-yl)-2-methyl-3-(((((S)-5-oxopyrrolidin-2-yl)methyl)amino)methyl)-4H-pyrido[1,2-a]pyrimidin-4-one]
- IC50: 0.0001 µM

Structure (SMILES): COc1nc(-c2cccc(-c3cccc(-c4cc5c(=O)n(C)c(CNCC(C)(C)O)nn5c4)c3Cl)c2Cl)ccc1CNC[C@@H]1CCC(=O)N1 [Example 405, (S)-6-(2,2′-Dichloro-3′-(6-methoxy-5-((((5-oxopyrrolidin-2-yl)methyl)amino)methyl)pyridin-2-yl)-[1,1′-biphenyl]-3-yl)-2-(((2-hydroxy-2-methylpropyl)amino)methyl)-3-methylpyrrolo [2,1-f][1,2,4]triazin-4(3H)-one]
- IC50: 0.084 µM

Structure (SMILES): COc1nc(-c2cccc(-c3cccc(-c4cc5c(=O)n(C)c(CNCCC(F)(F)F)nn5c4)c3Cl)c2Cl)ccc1CNC[C@@H]1CCC(=O)N1 [Example 406, (S)-6-(2,2′-Dichloro-3′-(6-methoxy-5-((((5-oxopyrrolidin-2-yl)methyl)amino)methyl)pyridin-2-yl)-[1,1′-biphenyl]-3-yl)-3-methyl-2-(((3,3,3-trifluoropropyl)amino)methyl)pyrrolo[2,1-f][1,2,4]triazin-4(3H)-one]
- IC50: 0.033 µM

Structure (SMILES): COc1nc(-c2cccc(-c3cccc(-c4ccn5c(=O)c(CNC[C@H]6C[C@H]6CO)cnc5c4)c3Cl)c2Cl)ccc1CNC[C@@H]1CCC(=O)N1 [Example 408, 8-(2,2′-Dichloro-3′-(6-methoxy-5-(((((S)-5-oxopyrrolidin-2-yl)methyl)amino)methyl)pyridin-2-yl)-[1,1′-biphenyl]-3-yl)-3-(((((1S,2R)-2-(hydroxymethyl)cyclopropyl)methyl)amino)methyl)-4H-pyrido[1,2-a]pyrimidin-4-one]
- IC50: 0.0011 µM

Structure (SMILES): COc1nc(-c2cccc(-c3cccc(-c4ccn5c(=O)c(CNC[C@@H]6C[C@@H]6CO)cnc5c4)c3Cl)c2Cl)ccc1CNC[C@@H]1CCC(=O)N1 [Example 409, 8-(2,2′-Dichloro-3′-(6-methoxy-5-(((((S)-5-oxopyrrolidin-2-yl)methyl)amino)methyl)pyridin-2-yl)-[1,1′-biphenyl]-3-yl)-3-(((((1R,2S)-2-(hydroxymethyl)cyclopropyl)methyl)amino)methyl)-4H-pyrido[1,2-a]pyrimidin-4-one]
- IC50: 0.0002 µM

Structure (SMILES): CN1CCNCc2ccc(-c3cccc(-c4cccc(-c5ccn6c(=O)c(CNC[C@@H]7CCC(=O)N7)cnc6c5)c4Cl)c3Cl)cc21 [Example 410, (S)-8-(2,2′-Dichloro-3′-(1-methyl-2,3,4,5-tetrahydro-1H-benzo[e][1,4]diazepin-8-yl)-[1,1′-biphenyl]-3-yl)-3-((((5-oxopyrrolidin-2-yl)methyl)amino)methyl)-4H-pyrido[1,2-a]pyrimidin-4-one]
- IC50: 0.12 µM

Structure (SMILES): COc1nc(-c2cccc(-c3cccc(-c4ccc5c(CNC[C@H](C)O)cn(C)c5n4)c3Cl)c2Cl)ccc1CNC[C@@H]1CCC(=O)N1 [Example 411, (5S)-5-[[[6-[2-Chloro-3-[2-chloro-3-[3-[[[(2S)-2-hydroxypropyl]amino]methyl]-1-methyl-pyrrolo[2,3-b]pyridin-6-yl]phenyl]phenyl]-2-methoxy-3-pyridyl]methylamino]methyl]pyrrolidin-2-one]
- IC50: 0.0016 µM

Structure (SMILES): COc1nc(-c2cccc(-c3cccc(-c4ccc5c(CN(C)CCO)cn(C)c5n4)c3Cl)c2Cl)ccc1CNC[C@@H]1CCC(=O)N1 [Example 412, (5S)-5-[[[6-[2-Chloro-3-[2-chloro-3-[3-[[2-hydroxyethyl(methyl)amino]methyl]-1-methyl-pyrrolo[2,3-b]pyridin-6-yl]phenyl]phenyl]-2-methoxy-3-pyridyl]methylamino]methyl]pyrrolidin-2-one]
- IC50: 0.0052 µM

Structure (SMILES): COc1nc(-c2cccc(-c3cccc(-c4ccc5c(CNC[C@@H]6CCO6)cn(C)c5n4)c3Cl)c2Cl)ccc1CNC[C@@H]1CCC(=O)N1 [Example 413, (5S)-5-[[[6-[2-Chloro-3-[2-chloro-3-[1-methyl-3-[[[(2S)-oxetan-2-yl]methylamino]methyl]pyrrolo[2,3-b]pyridin-6-yl]phenyl]phenyl]-2-methoxy-3-pyridyl]methylamino]methyl]pyrrolidin-2-one]
- IC50: 0.19 µM

Structure (SMILES): COc1nc(-c2cccc(-c3cccc(-c4ccc5c(CNCCN6CCCC6=O)cn(C)c5n4)c3Cl)c2Cl)ccc1CNC[C@@H]1CCC(=O)N1 [Example 414, 1-[2-[[6-[2-Chloro-3-[2-chloro-3-[6-methoxy-5-[[[(2S)-5-oxopyrrolidin-2-yl]methylamino]methyl]-2-pyridyl]phenyl]phenyl]-1-methyl-pyrrolo[2,3-b]pyridin-3-yl]methylamino]ethyl]pyrrolidin-2-one]
- IC50: 0.17 µM

Structure (SMILES): COc1nc(-c2cccc(-c3cccc(-c4ccc5c(CNC6CCN(C(C)=O)CC6)cn(C)c5n4)c3Cl)c2Cl)ccc1CNC[C@@H]1CCC(=O)N1 [Example 415, (5S)-5-[[[6-[3-[3-[3-[[(1-Acetyl-4-piperidyl)amino]methyl]-1-methyl-pyrrolo[2,3-b]pyridin-6-yl]-2-chloro-phenyl]-2-chloro-phenyl]-2-methoxy-3-pyridyl]methylamino]methyl]pyrrolidin-2-one]
- IC50: 0.22 µM

Structure (SMILES): Cn1cc(CNC[C@@H]2CCC(=O)N2)c2ccc(-c3cccc(-c4cccc(-c5ccn6c(=O)c(CNC[C@@H]7CCC(=O)N7)cnc6c5)c4Cl)c3Cl)nc21 [Example 416, 8-[2-Chloro-3-[2-chloro-3-[1-methyl-3-[[[(2S)-5-oxopyrrolidin-2-yl]methylamino]methyl]pyrrolo[2,3-b]pyridin-6-yl]phenyl]phenyl]-3-[[[(2S)-5-oxopyrrolidin-2-yl]methylamino]methyl]pyrido[1,2-a]pyrimidin-4-one]
- IC50: 0.071 µM

Structure (SMILES): Cn1cc(CNC[C@@H]2CCC(=O)N2)c2ccc(-c3cccc(-c4cccc(-c5ccc6c(CNC[C@@H]7CCC(=O)N7)cn(C)c6n5)c4Cl)c3Cl)nc21 [Example 417, (5S)-5-[[[6-[2-Chloro-3-[2-chloro-3-[1-methyl-3-[[[(2S)-5-oxopyrrolidin-2-yl]methylamino]methyl]pyrrolo[2,3-b]pyridin-6-yl]phenyl]phenyl]-1-methyl-pyrrolo[2,3-b]pyridin-3-yl]methylamino]methyl]pyrrolidin-2-one]
- IC50: 0.032 µM

Structure (SMILES): COc1cc(-c2cccc(-c3cccc(-c4ccc(CNC[C@@H]5CCC(=O)N5)c(OC)n4)c3Cl)c2Cl)cc2c1CN(C[C@H](C)O)CC2 [Example 418, (S)-5-((((6-(2,2′-Dichloro-3′-(2-((S)-2-hydroxypropyl)-8-methoxy-1,2,3,4 tetrahydroisoquinolin-6-yl)-[1,1′-biphenyl]-3-yl)-2-methoxypyridin-3-yl)methyl)amino)methyl)pyrrolidin-2-one]
- IC50: 0.023 µM
